One data set addresses T1, α-chymotrypsin (CHT) (Bos taurus, UniProt P00766).
T1 construct: purchased Merk (Merck/Sigma-Aldrich, St. Louis, MO, USA)
The data set is described as follows: Enzymatic degradation kinetics with α-chymotrypsin. It counts as in vitro ADME. To be noted: CHT 0.36 mg/mL mixed, final DAL 0.50 mg/mL, 0.4 M PB, 37 ℃, 80 rpm, HPLC, mean ± SD of three independent experiments. As for the experimental part:
(§1) Stock 1 mg/mL solutions of DAL-NP or free DAL in filtered 0.4 M PB were used for the enzymatic digestion tests. The solutions were mixed with 0.36 mg/mL CHT or 0.18 mg/mL PAC to obtain solutions with a final DAL concentration of 0.50 mg/mL. The DAL-NP and free DAL samples were subjected to digestion in the presence of CHT or PAC at 37 ℃ in a shaker water bath (80 rpm). At pre-established intervals, samples were withdrawn, appropriately diluted with the mobile phase (4 ℃), and analyzed in triplicate for DAL by HPLC, as described previously. The analysis was repeated in triplicate.

The test system of a further data set is pancreatin (PAC). Put plainly: Enzymatic degradation kinetics with pancreatin. As to conditions: PAC 0.18 mg/mL mixed, final DAL 0.50 mg/mL, 0.4 M PB, 37 ℃, HPLC. It counts as in vitro ADME. As for the experimental part:
as §1

Data set [1] in a line: Cytotoxicity by WST-1 assay, Caco-2. The format is cell-based. To be noted: human, WST-1, DAL 17–150 µg/mL, HBSS pH 6.8, three independent experiments, read-out: cell vitality, Caco-2, over the whole concentration range. As for the experimental part:
To study the cytotoxicity of the DAL/N^+-Ch-CD complex, we mixed 400 µL of polymer solution (3.175 mg/mL) and 380 µL of 1 mg/mL aqueous DAL, and the mix was lyophilized under the conditions described above. The DAL-NP were lyophilized and the lyophilized product was re-suspended in 250 µL of 0.22 µm filtered water. An aliquot of dispersion (200 µL) was withdrawn and added to 20 µL of Hank’s buffer solution 10× (HBSS 37 ℃, pH 6.8), and the mix was made to 2 mL with HBSS 1X as to have a DAL content of […]. The Caco-2 cells were subjected to DAL concentrations in the 17–150 µg/mL range, while the bEnd.3 cells were brought into contact with DAL concentrations in the 17–100 µg/mL range; more specifically, DAL was free in solution, contained in the DAL/N^+-rCh-CD (1:1) complex, or encapsulated in NP. The cytotoxicity of the compounds under study was evaluated by the WST-1 assay. Caco-2 and bEnd.3 cells were seeded in each well of 96-well plates at a seeding density of 2 × 10^4 cells per well, and left to proliferate for 24 h at 37 ℃ in 5% CO2. The culture medium was then removed and replaced with samples of DAL, DAL/N^+-Ch-CD complex, and DAL-NP, as previously described. Afterwards, formazan dye absorbance was quantified at 450 nm with the reference wavelength of 655 by using an Enspire 230 (Perkin-Elmer, Waltham, MA, USA) multilabel reader.
On the technique in general: Tetrazolium assays rely on reduction of a dye to a coloured formazan, in cell work by metabolically active cells.

The subject of the next data set is Caco-2 monolayer. Put plainly: Permeation across Caco-2 monolayer (Transwell). It counts as in vitro ADME. As to conditions: Caco-2 monolayer 24 days, A-B, apical DAL 150 µg/mL, up to 3 h, HPLC, NP as FITC-labeled DAL-NP. As for the experimental part: The permeation studies were performed as described previously. Briefly, a Caco-2 monolayer was obtained by cell seeding (10^5 cells per well) on Transwell 12-well plates (pore size […], area 1.12 cm^2; Sigma-Aldrich, Saint Louis, MO, USA). Thereafter, 0.5 and 1.5 mL of culture medium were added to apical and basolateral compartments of the inserts, respectively; the culture medium was replaced every 2 days for 24 days. The transepithelial electrical resistance (TEER, Ω cm^2) measurement during the permeatstudies was carried out using a voltmeter with rod electrodes (Voltmeter Millicells-ERS, Millipore, Molsheim, France). The TEER values for the Caco-2 cell monolayer grown on the Transwell filter were ion taken at time 0, every hour for 3 h, and at 24 h.
Both the NP vehicle and the DAL were followed in the mucosal and basolateral phases. […] The withdrawn samples were kept in ice and analyzed by HPLC. The evaluation of DAL contained in NP-FITC by HPLC implied subtracting the contribution of the fluorescein-labeled polymer from the peptide peak area. Therefore, with each sample to be analyzed, a specific fluorescence intensity was recorded by a spectrofluorometer from which the fluorescent polymer concentration to be injected in the HPLC apparatus could be extrapolated. […]
(In general: Caco-2 cells form a polarised layer with tight junctions and transporters.)

Another data set relates to bEnd.3 monolayer. Put plainly: Permeation across bEnd.3 monolayer (Transwell, BBB model). It counts as in vitro ADME, murine. From the text:
The medium was changed every 2 days.

Non-standard residues stand in square brackets, D forms with d. Residues, ends and D or L forms follow the SMILES beside them.

Experimental for bEnd.3 monolayers: The bEnd.3 cells, at a concentration of 5 × 10^4 cells per well, were seeded on 12-well Transwell plates with polyester filters with 0.4 µm membrane pores and incubated 10 days at 37 ℃ in a 5% CO2 atmosphere. One and a half milliliters of full medium was added to the basal chamber, while a volume of 0.5 mL, including the cells, was added to the apical chamber. The medium was changed every 2 days. After 6 days culture, the medium of the basolateral chamber was replaced by serum-free medium and the cells were cultured for 4 more days before the permeation experiment. To evaluate the confluence of the cell monolayer, and during the permeation studies, we measured the TEER at time 0 and at each hour for 3 h, and then at 24 h, as previously described. […] At 1 h intervals up to 3 h, the runs were interrupted and 500 µL was collected from the apical chamber and 1.5 mL from the basolateral chamber. Permeation of DAL and FITC-labeled vehicle into the basolateral chamber as well as DAL and FITC-labeled vehicle concentrations in the apical chamber were measured as described above.

`CC(C)C[C@H](NC(=O)[C@H](Cc1ccccc1)NC(=O)CNC(=O)[C@@H](C)NC(=O)[C@@H](N)Cc1ccc(O)cc1)C(=O)N[C@@H](CCCNC(=N)N)C(=O)O` [DAL, (D-Ala2)-Leu Enkephalin-Arg] (H-Y[dA]GFLR-OH): the “reduction of substrate (DAL) after 5 min with CHT” value at α-chymotrypsin (CHT) came to 90 ± 0.41%. Moreover, the “reduction of initial DAL content 2 min after adding PAC” value with pancreatin (PAC) (80 rpm, 2 min, three independent experiments) came out at 85 ± 1.39%. Moreover, in the data set on pancreatin (PAC) (5 min), the “DAL present after 5 min with PAC” value is on record as “no peptide was present”. In data set [1], the viability was above 70%. In addition, the “DAL presence in basolateral chamber, Caco-2” value with Caco-2 monolayer is listed as “could never be evidenced”. In addition, in the data set with bEnd.3 monolayer (100% corresponds to 180 Ω cm^2, initial apical DAL 25 µg/mL, 3 h), the “TEER of bEnd.3 monolayer during permeation experiment” value came to 100%. The “DAL presence in basolateral chamber, bEnd.3” value with bEnd.3 monolayer (bEnd.3 monolayer 10 days, Transwell, A-B, apical DAL 25 µg/mL, up to 3 h, HPLC, NP as FITC-labeled DAL-NP) is recorded as “below the analytical limit”.
`O=C1OC2(c3ccc(O)cc3Oc3cc(O)ccc32)c2ccccc21` [NaF, Sodium fluorescein]: in the data set with bEnd.3 monolayers, the “Papp, NaF 50 μg/mL” value is listed as 0.51 10-6 cm/sec and the “Papp, NaF 100 μg/mL” value was 0.52 10-6 cm/sec.

The values are drawn from article PMC7822029, “Nanoparticles Based on Quaternary Ammonium Chitosan-methyl-β-cyclodextrin Conjugate for the Neuropeptide Dalargin Delivery to the Central Nervous System: An In Vitro Study” (Pharmaceutics, 2020).
